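Cells were grown in 96-well plates and exposed to each compound for 48 hours at five concentrations; endpoints were interpolated linearly between bracketing concentrations, or set to the highest concentration if not reached. TGI: concentration producing complete growth inhibition.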
Legend:
Experiment in all cases: DTP human tumour cell line panel, 48 h
U251 CNS = test system: U251 CNS
OVCAR-4 ovarian = test system: OVCAR-4 ovarian
PC-3 prostate = test system: PC-3 prostate
SNB-75 CNS = test system: SNB-75 CNS
CAKI-1 renal = test system: CAKI-1 renal
MDA-MB-231 breast = test system: MDA-MB-231 breast
HCC-2998 colon = test system: HCC-2998 colon
K-562 leukemia = test system: K-562 leukemia
SNB-19 CNS = test system: SNB-19 CNS
OVCAR-3 ovarian = test system: OVCAR-3 ovarian
TK-10 renal = test system: TK-10 renal
OVCAR-5 ovarian = test system: OVCAR-5 ovarian
SR leukemia = test system: SR leukemia
MOLT-4 leukemia = test system: MOLT-4 leukemia

Compound | TGI (U251 CNS) | TGI (OVCAR-4 ovarian) | TGI (PC-3 prostate) | TGI (SNB-75 CNS) | TGI (CAKI-1 renal) | TGI (MDA-MB-231 breast) | TGI (HCC-2998 colon) | TGI (K-562 leukemia) | TGI (SNB-19 CNS) | TGI (OVCAR-3 ovarian) | TGI (TK-10 renal) | TGI (OVCAR-5 ovarian) | TGI (SR leukemia) | TGI (MOLT-4 leukemia)
COc1ccc(C(c2ccccc2)N2C(=O)CCC2C(=O)O)cc1OC (centres undefined) | > 100 µM | > 100 µM | > 100 µM | > 100 µM | > 100 µM | > 100 µM | > 100 µM | > 100 µM | > 100 µM | > 100 µM | > 100 µM | > 100 µM | > 100 µM | > 100 µM
CN(N=O)C(N)=NC(=O)c1ccccc1 | > 100 µM | > 100 µM | > 100 µM | > 100 µM | > 100 µM | > 100 µM |  | > 100 µM | > 100 µM | > 100 µM | > 100 µM | > 100 µM | > 100 µM | > 100 µM
CC(=O)/C(=C\n1c(=S)[nH]c2ccc([N+](=O)[O-])cc21)C(=O)Nc1ccccc1C | > 100 µM | > 100 µM | > 100 µM |  | > 100 µM | > 100 µM | > 100 µM | > 100 µM |  | > 100 µM |  | > 100 µM | > 100 µM | > 100 µM
CC(=O)N(CCc1ccccc1)C(C)(C#N)c1ccccc1 (centres undefined) | > 100 µM | > 100 µM | > 100 µM | > 100 µM | > 100 µM | > 100 µM | > 100 µM | > 100 µM | > 100 µM | > 100 µM | > 100 µM | > 100 µM | > 100 µM | > 100 µM
COC(=O)/C=C(\S/C(=C(/c1ccccc1)n1cc(C(=O)OC)c(C(=O)OC)n1)c1ccccc1)C(=O)OC | 66.1 µM | 29 µM | 32.2 µM | 95.2 µM | 6.66 µM | 44.6 µM |  | 31.8 µM | 40 µM | 8.29 µM | 9.22 µM | 32.7 µM | 32.6 µM | 12.4 µM
CSc1nc2ccccc2c(=O)n1-c1cccc(C)c1 | > 100 µM | > 100 µM | > 100 µM | > 100 µM | > 100 µM | > 100 µM | 35.1 µM | > 100 µM | > 100 µM | > 100 µM | > 100 µM | > 100 µM | 49.7 µM | 98.2 µM
COC(=O)C(NC(=O)C12CCC(C)(C(=O)O1)C2(C)C)c1cc(C(C)(C)C)c(O)c(C(C)(C)C)c1 (centres undefined) | > 100 µM | > 100 µM | > 100 µM | > 100 µM | > 100 µM | > 100 µM |  | > 100 µM | > 100 µM | > 100 µM | > 100 µM | > 100 µM | > 100 µM | > 100 µM
CCC1c2[nH]c3ccccc3c2C[C@H]2C(=O)NC(Cc3ccccc3)C(=O)N12 (some centres undefined) | 56.3 µM | > 100 µM | 58.2 µM |  | 98.8 µM | 46.2 µM | 62.1 µM | > 100 µM | > 100 µM | 94.2 µM | > 100 µM | 65.7 µM | 53.8 µM | 56.9 µM
O=C(N/N=C1\CCc2ccccc21)N/N=C1\CCc2ccccc21 | > 100 µM |  | > 100 µM | > 100 µM | > 100 µM | 29.4 µM | > 100 µM | > 100 µM | > 100 µM | > 100 µM | > 100 µM | > 100 µM | > 100 µM | > 100 µM
CCCN=C1S/C(=C/c2ccc(OC)c(OC)c2)C(=O)N1c1ccccc1 | 38.7 µM | 80.6 µM | > 100 µM |  | > 100 µM | 92.6 µM | > 100 µM | > 100 µM | 63.4 µM | 43.3 µM | 55.2 µM | > 100 µM | > 100 µM | > 100 µM
N/C(=N/O)c1cn(C2OC(CO)C(O)C2O)c2ncnc(NO)c12 (centres undefined) | 54.1 µM | 5.98 µM | 3.17 µM |  |  | 5.05 µM | 7.12 µM | > 100 µM | > 100 µM |  | > 33.6 µM | > 57.7 µM | 0.262 µM | 0.395 µM
C=CCSC1=N/C(=C\c2ccco2)C(=O)N1CC=C | > 100 µM | > 100 µM | > 100 µM |  | > 100 µM | > 100 µM | > 100 µM | > 100 µM | > 100 µM | > 100 µM | > 100 µM | > 100 µM | > 100 µM | > 100 µM
CCOC(=O)c1cc(NC(=O)c2ccccc2)c(=O)n2c(cc3c(Cl)cccc32)c1O | > 100 µM | > 100 µM | > 100 µM |  | > 100 µM | > 100 µM | > 100 µM | > 100 µM | > 100 µM | > 100 µM | > 100 µM | > 100 µM | > 100 µM | > 100 µM
CC(C)=CCc1c(O)c(CC=C(C)C)c2oc3c(c(=O)c2c1O)C(C=C(C)C)Oc1cc(O)ccc1-3 (centres undefined) | 16.7 µM | 23.3 µM | 14.4 µM | 14.1 µM | 19.4 µM | 25.6 µM |  | 16.6 µM | 24.2 µM | 14.8 µM | 13.3 µM | 33.1 µM | 8.29 µM | 16.6 µM
O=C1c2cc([N+](=O)[O-])cnc2S(=O)(=O)N1c1ccc(Oc2ccccc2)cc1 | > 100 µM | > 100 µM | > 100 µM | > 100 µM |  | > 100 µM | > 100 µM | > 100 µM | > 100 µM | > 100 µM | > 100 µM | > 100 µM | > 100 µM | > 100 µM
Cc1c(/C=N\NC(=S)N(C)CCN(C)C(=S)N/N=C\c2c(C)n(C)n(-c3ccccc3)c2=O)c(=O)n(-c2ccccc2)n1C | > 100 µM | > 100 µM | > 100 µM | > 100 µM | > 100 µM | > 100 µM | > 100 µM |  | > 100 µM | > 100 µM | > 100 µM | > 100 µM | > 100 µM | > 100 µM
CN(Cc1cnc2nc(N)nc(N)c2n1)c1ccc(C(=O)NC2CCCCC2)cc1 | 32.5 µM |  | 46 µM | 65.4 µM | > 100 µM | > 100 µM |  | > 100 µM | 38.7 µM | > 100 µM | > 100 µM | > 100 µM | > 100 µM | > 100 µM

Reference: PubChem BioAssay (NCI)
